In patent publication US12509445B2, “Herbicidally active 4-cyclopropyl-6-[4-(trifluormethyl)pyrazol-1-yl)]pyrimidines” (Bayer Aktiengesellschaft, priority 2019, dated 2025):

Key:
Format in all cases: in vivo
[1] = system: Amaranthus retroflexus (AMARE); test: Pre-emergence herbicidal action; conditions: 320 g/ha, visual scoring after about 3 weeks vs untreated controls, 100% = plants have died
From the text: (§1) The abbreviations used here have the following meanings: • ABUTH Abutilon theophrasti • AMARE Amaranlhus retroflexus • CYPES Cyperus serotinus • ECHCGEchinocloa crus galli • LOLRI Lolium rigidum Gaudin • PHBPU Pharbitis purpurcum • SETVI Setaria viridis • VERPE Veronica persica • ALOMY Alopccurus myosuroides • AVEFA Avena fatua • DIGSA Digitaria sanguinalis • LOLMU Lolium multiflorum • MATIN Matricaria inodora • POLCO Polygonum convolvulus • STEME Stellaria media • VIOTR Viola tricolor
(§2) Seeds of monocotyledonous and dicotyledonous weed plants and crop plants are placed in plastic or organic plant pots and covered with soil. The compounds of the invention, formulated in the form of wettable powders (WP) or as emulsion concentrates (EC), are then applied onto the surface of the covering soil as aqueous suspension or emulsion with addition of 0.5% additive at a water application rate of 600 l/ha (converted). After the treatment, the pots are placed in a greenhouse and kept under good growth conditions for the trial plants. After about 3 weeks, the effect of the preparations is scored visually in comparison with untreated controls as percentages. For example, 100% activity=the plants have died, 0% activity=like control plants.

[2] = system: Pharbitis purpurea (PHBPU); test: Pre-emergence herbicidal action; conditions: 320 g/ha, visual scoring after about 3 weeks vs untreated controls, 100% = plants have died
From the text: as §1, §2

[3] = system: Lolium multiflorum (LOLMU); test: Pre-emergence herbicidal action; conditions: 320 g/ha, visual scoring after about 3 weeks vs untreated controls, 100% = plants have died
From the text: as §1, §2

[4] = system: Avena fatua (AVEFA); test: Pre-emergence herbicidal action; conditions: 320 g/ha, visual scoring after about 3 weeks vs untreated controls, 100% = plants have died
From the text: as §1, §2

[5] = system: Abutilon theophrasti (ABUTH); test: Pre-emergence herbicidal action; conditions: 320 g/ha, visual scoring after about 3 weeks vs untreated controls, 100% = plants have died
From the text: as §1, §2

[6] = system: Veronica persica (VERPE); test: Pre-emergence herbicidal action; conditions: 320 g/ha, visual scoring after about 3 weeks vs untreated controls, 100% = plants have died
From the text: as §1, §2

[7] = system: Stellaria media (STEME); test: Pre-emergence herbicidal action; conditions: for Herbicidal action against STEME: 80 g of a.i./ha, comparative test; for Pre-emergence action STEME: 320 g/ha, visual scoring after about 3 weeks vs untreated controls, 100% = plants have died
From the text: as §1, §2
(§3) The compounds according to the invention were tested by the post-emergence and pre-emergence methods under the conditions described above for comparative purposes with the structurally closest compounds known from WO 2005/089551 A1 (D1).

[8] = system: Viola tricolor (VIOTR); test: Pre-emergence herbicidal action; conditions: for Herbicidal action against VIOTR: 80 g of a.i./ha, comparative test; for Pre-emergence action VIOTR: 320 g/ha, visual scoring after about 3 weeks vs untreated controls, 100% = plants have died
From the text: as §1, §2, §3

[9] = system: Echinochloa crus-galli (ECHCG); test: Pre-emergence herbicidal action; conditions: for Herbicidal action against ECHCG: 80 g of a.i./ha, comparative test; for Pre-emergence action ECHCG: 320 g/ha, visual scoring after about 3 weeks vs untreated controls, 100% = plants have died
From the text: as §1, §2, §3

[10] = system: Matricaria inodora (MATIN); test: Pre-emergence herbicidal action; conditions: for Herbicidal action against MATIN: 80 g of a.i./ha, comparative test; for Pre-emergence action MATIN: 320 g/ha, visual scoring after about 3 weeks vs untreated controls, 100% = plants have died
From the text: as §1, §2, §3

[11] = system: Polygonum convolvulus (POLCO); test: Pre-emergence herbicidal action; conditions: for Herbicidal action against POLCO: 80 g of a.i./ha, comparative test; for Pre-emergence action POLCO: 320 g/ha, visual scoring after about 3 weeks vs untreated controls, 100% = plants have died
From the text: as §1, §2, §3

[12] = system: Alopecurus myosuroides (ALOMY); test: Pre-emergence herbicidal action; conditions: for Herbicidal action against ALOMY: 80 g of a.i./ha, comparative test; for Pre-emergence action ALOMY: 320 g/ha, visual scoring after about 3 weeks vs untreated controls, 100% = plants have died
From the text: as §1, §2, §3

[13] = system: Setaria viridis (SETVI); test: Pre-emergence herbicidal action; conditions: for Herbicidal action against SETVI: 80 g of a.i./ha, comparative test; for Pre-emergence action SETVI: 320 g/ha, visual scoring after about 3 weeks vs untreated controls, 100% = plants have died
From the text: as §1, §2, §3

[14] = system: harmful plants such as Alopecurus myosuroides, Amaranthus retroflexus, Avena fatua, Echinochloa crus-galli, Matricaria inodora, Pharbitis purpurea, Polygonum …; test: Pre-emergence herbicidal action, summary in text; conditions: pre-emergence treatment
From the text: as §2
At the same time, some compounds according to the invention leave graminaceous crops such as barley, wheat, rye, millet/sorghum, maize, rice or sugarcane virtually undamaged when applied by the pre-emergence method, even at high active compound dosages. Some compounds are additionally also benign to dicotyledonous crops such as soya, cotton, oilseed rape or sugarbeet.

[15] = system: harmful plants such as Abutilon theophrasti, Alopecurus myosuroides, Amaranthus retroflexus, Avena fatua, Echinochloa crus-galli, Matricaria inodora, Pharbitis …; test: Post-emergence herbicidal action, summary in text; conditions: post-emergence treatment
Procedure: (§4) Seeds of monocotyledonous and dicotyledonous weeds and crop plants are placed in sandy loam in plastic or organic plant pots, covered with soil and cultivated in a greenhouse under controlled growth conditions. 2 to 3 weeks after sowing, the test plants are treated at the one-leaf stage. The compounds of the invention, formulated in the form of wettable powders (WP) or as emulsion concentrates (EC), are then sprayed onto the green parts of the plants as aqueous suspension or emulsion with addition of 0.5% additive at a water application rate of 600 l/ha (converted). After the test plants have been kept in the greenhouse under optimum growth conditions for about 3 weeks, the activity of the preparations is rated visually in comparison to untreated controls. For example, 100% activity=the plants have died, 0% activity=like control plants.
In this case, for example, in the post-emergence process, the compounds No. 1-001 and 111-001 have very good herbicidal activity (80% to 100% herbicidal action) against harmful plants such as Abutilon theophrasti, Alopecurus myosuroides, Amaranthus retroflexus, Avena fatua, Echinochloa crus-galli, Matricaria inodora, Pharbitis purpurea, Setaria viridis, Stellaria media, Veronica persica and Viola tricolor at an application rate of 0.32 kg of active substance or less per hectare. At the same time, some compounds according to the invention leave graminaceous crops such as barley, wheat, rye, millet/sorghum, maize, rice or sugarcane virtually undamaged when applied by the post-emergence method, even at high active compound dosages. Some substances are additionally also benign to dicotyledonous crops such as soya, cotton, oilseed rape or sugarbeet.

[16] = system: Amaranthus retroflexus (AMARE); test: Post-emergence herbicidal action; conditions: 320 g/ha, visual rating after about 3 weeks vs untreated controls, 100% = plants have died
Procedure: as §4, §1

[17] = system: Pharbitis purpurea (PHBPU); test: Post-emergence herbicidal action; conditions: 320 g/ha, visual rating after about 3 weeks vs untreated controls, 100% = plants have died
Procedure: as §4, §1

[18] = system: Viola tricolor (VIOTR); test: Post-emergence herbicidal action; conditions: 320 g/ha, visual rating after about 3 weeks vs untreated controls, 100% = plants have died
Procedure: as §4, §1

[19] = system: Veronica persica (VERPE); test: Post-emergence herbicidal action; conditions: 320 g/ha, visual rating after about 3 weeks vs untreated controls, 100% = plants have died
Procedure: as §4, §1

[20] = system: Stellaria media (STEME); test: Post-emergence herbicidal action; conditions: for Herbicidal action against STEME: 80 g of a.i./ha, comparative test; for Post-emergence action STEME: 320 g/ha, visual rating after about 3 weeks vs untreated controls, 100% = plants have died
Procedure: as §4, §1, §3

[21] = system: Lolium multiflorum (LOLMU); test: Post-emergence herbicidal action; conditions: for Herbicidal action against LOLMU: 80 g of a.i./ha, comparative test
Procedure: as §4, §1, §3

[22] = system: Echinochloa crus-galli (ECHCG); test: Post-emergence herbicidal action; conditions: for Herbicidal action against ECHCG: 80 g of a.i./ha, comparative test; for Post-emergence action ECHCG: 320 g/ha, visual rating after about 3 weeks vs untreated controls, 100% = plants have died
Procedure: as §4, §1, §3

[23] = system: Avena fatua (AVEFA); test: Post-emergence herbicidal action; conditions: for Herbicidal action against AVEFA: 80 g of a.i./ha, comparative test; for Post-emergence action AVEFA: 320 g/ha, visual rating after about 3 weeks vs untreated controls, 100% = plants have died
Procedure: as §4, §1, §3

[24] = system: Matricaria inodora (MATIN); test: Post-emergence herbicidal action; conditions: for Herbicidal action against MATIN: 80 g of a.i./ha, comparative test; for Post-emergence action MATIN: 320 g/ha, visual rating after about 3 weeks vs untreated controls, 100% = plants have died
Procedure: as §4, §1, §3

[25] = system: Polygonum convolvulus (POLCO); test: Post-emergence herbicidal action; conditions: for Post-emergence action POLCO: 320 g/ha, visual rating after about 3 weeks vs untreated controls, 100% = plants have died
Procedure: as §4, §1, §3

[26] = system: Alopecurus myosuroides (ALOMY); test: Post-emergence herbicidal action
Procedure: as §4, §1, §3

[27] = system: Abutilon theophrasti (ABUTH); test: Post-emergence herbicidal action; conditions: for Herbicidal action against ABUTH: 80 g of a.i./ha, comparative test; for Post-emergence action ABUTH: 320 g/ha, visual rating after about 3 weeks vs untreated controls, 100% = plants have died
Procedure: as §4, §1, §3

[28] = system: Setaria viridis (SETVI); test: Post-emergence herbicidal action; conditions: for Herbicidal action against SETVI: 80 g of a.i./ha, comparative test; for Post-emergence action SETVI: 320 g/ha, visual rating after about 3 weeks vs untreated controls, 100% = plants have died
Procedure: as §4, §1, §3

[29] = 320 g/ha, visual rating after about 3 weeks vs untreated controls, 100% = plants have died
[30] = 80 g of a.i./ha, comparative test

Cn1nc(C(F)(F)F)cc1Oc1nc(C2CC2)cc(-n2cc(C(F)(F)F)cn2)n1 [III-001]
70%: Herbicidal action against LOLMU [21] | Herbicidal action against ALOMY [26, 30]
100%: Pre-emergence action PHBPU [2] | Pre-emergence action VERPE [6] | Pre-emergence action STEME [7] | Herbicidal action against VIOTR [8] | Pre-emergence action VIOTR [8] | Herbicidal action against ECHCG [9] | Pre-emergence action ECHCG [9] | Herbicidal action against MATIN [10] | Pre-emergence action MATIN [10] | Herbicidal action against ALOMY [12] | Pre-emergence action ALOMY [12] | Herbicidal action against SETVI [13] | Pre-emergence action SETVI [13] | Post-emergence action AMARE [16] | Post-emergence action PHBPU [17] | Post-emergence action VIOTR [18] | Post-emergence action VERPE [19] | Post-emergence action STEME [20] | Post-emergence action SETVI [28]
good herbicidal action: herbicidal action against harmful plants (in words) [14] | herbicidal action against harmful plants (in words) [15]
90%: Pre-emergence action AMARE [1] | Pre-emergence action LOLMU [3] | Pre-emergence action AVEFA [4] | Pre-emergence action ABUTH [5] | Herbicidal action against STEME [7] | Herbicidal action against POLCO [11] | Pre-emergence action POLCO [11] | Herbicidal action against STEME [20] | Post-emergence action LOLMU [21, 29] | Post-emergence action ECHCG [22] | Post-emergence action AVEFA [23] | Post-emergence action MATIN [24] | Herbicidal action against POLCO [25, 30] | Post-emergence action POLCO [25] | Post-emergence action ALOMY [26, 29] | Herbicidal action against ABUTH [27] | Post-emergence action ABUTH [27] | Herbicidal action against SETVI [28]
80%: Herbicidal action against ECHCG [22] | Herbicidal action against AVEFA [23] | Herbicidal action against MATIN [24]

FC(F)(F)c1cnn(-c2cc(C3CC3)nc(Oc3csc(C(F)(F)F)c3)n2)c1 [IV-001]
80%: Pre-emergence action POLCO [11] | Post-emergence action PHBPU [17] | Post-emergence action ECHCG [22] | Post-emergence action AVEFA [23] | Herbicidal action against MATIN [24] | Herbicidal action against ABUTH [27] | Post-emergence action SETVI [28]
90%: Pre-emergence action VERPE [6] | Herbicidal action against STEME [7] | Herbicidal action against VIOTR [8] | Pre-emergence action VIOTR [8] | Herbicidal action against MATIN [10] | Herbicidal action against SETVI [13] | Pre-emergence action SETVI [13] | Post-emergence action VIOTR [18] | Post-emergence action MATIN [24] | Post-emergence action POLCO [25] | Post-emergence action ABUTH [27]
70%: Herbicidal action against ECHCG [9] | Herbicidal action against ALOMY [12] | Herbicidal action against ECHCG [22] | Herbicidal action against SETVI [28]
40%: Herbicidal action against LOLMU [21]
good herbicidal action: herbicidal action against harmful plants (in words) [15]
20%: Herbicidal action against POLCO [11]
60%: Herbicidal action against AVEFA [23]
100%: Pre-emergence action AMARE [1] | Pre-emergence action STEME [7] | Pre-emergence action ECHCG [9] | Pre-emergence action MATIN [10] | Pre-emergence action ALOMY [12] | Post-emergence action AMARE [16] | Post-emergence action VERPE [19] | Herbicidal action against STEME [20] | Post-emergence action STEME [20]
